Values joined by “and” are separate entries in the source; they are usually repeats but may differ in a detail not shown here. Identical values can stand only once.
Columns and labels:
[1] = tested on: mutant PXR.1 (C285I/C301A); test: PXR luciferase reporter assay in HEK293T cells, mutant PXR.1; type: cell-based, human; conditions: 10 μM, replicate wells
Procedure: After 24‐h transfection using Lipofectamine® LTX ([…] of plasmid), cells were exposed to FKK5 for 24 h. […] The data are expressed as mean ± SD RLU (relative light units from luciferase assay) normalized to β‐Gal activity in the same well. Differences were tested using 2‐way ANOVA with Tukey's multiple comparison test, and P < 0.05 was considered significant (*).

CDK2 = CDK2 (Homo sapiens, UniProt P24941); test: KINOMEscan select kinase screen; type: binding; conditions: two experiments
Procedure: (§1) Kinase Assays. The kinase inhibition assays were conducted by DiscoverX on a platform assay by Ambit BioSciences as described previously 16,17. FKK6 was screened at a single concentration of 10 μM in duplicate. The scanMAXSM assay panel measures 468 kinases
(§2) (https://www.discoverx.com/services/drug-discovery-development-services/kinase-profiling/kinomescan/scanmax). The assays measure a compound’s ability to inhibit binding of a canonical ligand substrate, with 0% activity of control corresponding to full inhibition and 100% activity of control to no inhibition. […]
(§3) quantitative measure of compound selectivity based on the number of kinase hits (enzymes inhibited) divided by the total number of distinct kinases tested. Three different activity cut-offs were analyzed – […]
(§4) ; and S(1) or % activity of control
(§5) < 1. To illustrate effect or lack of effect, an image of the entire family of kinases tested were grouped by families and S(35). The TREEspot Kinase dendrogram image was generated using TREEspot™ Software Tool and reprinted with permission from KINOME scan®, a division of DiscoveRx […]

IKK-alpha = biological target: T1, IKK-alpha (Homo sapiens, UniProt O15111); test: KINOMEscan select kinase screen; type: binding; conditions: two experiments
T1 sequence (O15111 1-745): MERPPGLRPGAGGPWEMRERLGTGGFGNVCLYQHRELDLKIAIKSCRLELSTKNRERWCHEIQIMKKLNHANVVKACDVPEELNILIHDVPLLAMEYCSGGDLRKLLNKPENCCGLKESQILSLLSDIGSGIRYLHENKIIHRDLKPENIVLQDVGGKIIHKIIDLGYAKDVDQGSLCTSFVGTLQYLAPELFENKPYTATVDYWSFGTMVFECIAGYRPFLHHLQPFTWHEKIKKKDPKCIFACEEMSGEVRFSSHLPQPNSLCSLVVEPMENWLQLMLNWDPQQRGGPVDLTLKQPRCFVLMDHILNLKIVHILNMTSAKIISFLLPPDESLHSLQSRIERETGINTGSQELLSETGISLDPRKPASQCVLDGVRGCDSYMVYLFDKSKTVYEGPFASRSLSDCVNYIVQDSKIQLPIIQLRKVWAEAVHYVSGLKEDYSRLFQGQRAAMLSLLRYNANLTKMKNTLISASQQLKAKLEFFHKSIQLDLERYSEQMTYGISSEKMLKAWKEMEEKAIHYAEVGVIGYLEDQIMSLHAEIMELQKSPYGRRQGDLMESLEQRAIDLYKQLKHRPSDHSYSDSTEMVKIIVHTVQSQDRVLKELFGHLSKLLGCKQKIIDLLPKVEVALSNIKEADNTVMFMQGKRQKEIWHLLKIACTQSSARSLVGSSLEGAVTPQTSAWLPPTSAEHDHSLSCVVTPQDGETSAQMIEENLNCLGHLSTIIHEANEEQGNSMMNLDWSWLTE
Procedure: as §1, §2, §3, §4, §5

ERK2 = ERK2 (Homo sapiens, UniProt P28482); test: KINOMEscan select kinase screen; type: binding; conditions: two experiments
Sequence of ERK2 (P28482 whole entry): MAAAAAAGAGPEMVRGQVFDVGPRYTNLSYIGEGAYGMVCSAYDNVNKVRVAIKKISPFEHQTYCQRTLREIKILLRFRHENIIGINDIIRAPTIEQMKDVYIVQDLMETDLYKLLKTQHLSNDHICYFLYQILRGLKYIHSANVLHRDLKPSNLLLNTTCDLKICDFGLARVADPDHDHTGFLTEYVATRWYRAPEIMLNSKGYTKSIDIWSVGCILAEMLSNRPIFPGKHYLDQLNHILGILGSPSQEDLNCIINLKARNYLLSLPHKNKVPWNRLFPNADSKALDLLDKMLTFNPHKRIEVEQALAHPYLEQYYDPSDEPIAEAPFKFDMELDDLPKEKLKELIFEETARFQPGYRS
Procedure: as §1, §2, §3, §4, §5

ERK4 = ERK4 (Homo sapiens, UniProt P31152); test: KINOMEscan select kinase screen; type: binding; conditions: two experiments
Sequence of ERK4 (P31152 whole entry): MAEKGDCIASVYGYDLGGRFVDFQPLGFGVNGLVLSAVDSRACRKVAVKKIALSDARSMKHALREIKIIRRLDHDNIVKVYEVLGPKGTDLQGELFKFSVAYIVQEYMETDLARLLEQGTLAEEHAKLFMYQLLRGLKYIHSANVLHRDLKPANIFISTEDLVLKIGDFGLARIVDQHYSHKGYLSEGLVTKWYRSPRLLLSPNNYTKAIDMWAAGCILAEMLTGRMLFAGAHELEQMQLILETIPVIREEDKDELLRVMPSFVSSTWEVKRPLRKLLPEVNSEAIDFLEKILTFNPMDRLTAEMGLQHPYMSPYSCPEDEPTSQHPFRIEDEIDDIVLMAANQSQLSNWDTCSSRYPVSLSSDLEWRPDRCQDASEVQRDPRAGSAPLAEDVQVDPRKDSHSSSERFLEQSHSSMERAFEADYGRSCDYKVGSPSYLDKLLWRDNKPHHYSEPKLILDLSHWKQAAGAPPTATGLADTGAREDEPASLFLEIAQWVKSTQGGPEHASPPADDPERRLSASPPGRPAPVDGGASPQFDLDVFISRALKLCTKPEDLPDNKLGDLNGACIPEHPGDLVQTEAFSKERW
Procedure: as §1, §2, §3, §4, §5

ERK8 = biological target: T2, ERK8 (Homo sapiens, UniProt Q8TD08); test: KINOMEscan select kinase screen; type: binding; conditions: two experiments
T2 sequence (Q8TD08 1-544): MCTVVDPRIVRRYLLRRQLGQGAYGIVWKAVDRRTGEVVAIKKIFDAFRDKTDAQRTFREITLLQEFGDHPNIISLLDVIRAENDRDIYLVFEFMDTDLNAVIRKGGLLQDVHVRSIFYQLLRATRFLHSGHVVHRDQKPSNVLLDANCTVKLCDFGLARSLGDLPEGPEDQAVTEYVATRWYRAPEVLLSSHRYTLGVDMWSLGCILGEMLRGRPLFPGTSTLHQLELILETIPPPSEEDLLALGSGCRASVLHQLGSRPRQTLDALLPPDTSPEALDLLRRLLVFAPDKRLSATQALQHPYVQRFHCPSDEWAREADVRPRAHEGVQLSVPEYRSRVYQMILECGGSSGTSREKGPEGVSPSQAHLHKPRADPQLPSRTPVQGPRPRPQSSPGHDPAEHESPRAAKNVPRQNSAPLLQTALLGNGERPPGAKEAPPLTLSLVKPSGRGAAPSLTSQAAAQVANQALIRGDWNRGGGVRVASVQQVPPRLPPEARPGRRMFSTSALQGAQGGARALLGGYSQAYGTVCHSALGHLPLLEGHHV
Procedure: as §1, §2, §3, §4, §5

ERK5 = ERK5 (Homo sapiens, UniProt Q13164); test: KINOMEscan select kinase screen; type: binding; conditions: two experiments
Sequence of ERK5 (Q13164 whole entry): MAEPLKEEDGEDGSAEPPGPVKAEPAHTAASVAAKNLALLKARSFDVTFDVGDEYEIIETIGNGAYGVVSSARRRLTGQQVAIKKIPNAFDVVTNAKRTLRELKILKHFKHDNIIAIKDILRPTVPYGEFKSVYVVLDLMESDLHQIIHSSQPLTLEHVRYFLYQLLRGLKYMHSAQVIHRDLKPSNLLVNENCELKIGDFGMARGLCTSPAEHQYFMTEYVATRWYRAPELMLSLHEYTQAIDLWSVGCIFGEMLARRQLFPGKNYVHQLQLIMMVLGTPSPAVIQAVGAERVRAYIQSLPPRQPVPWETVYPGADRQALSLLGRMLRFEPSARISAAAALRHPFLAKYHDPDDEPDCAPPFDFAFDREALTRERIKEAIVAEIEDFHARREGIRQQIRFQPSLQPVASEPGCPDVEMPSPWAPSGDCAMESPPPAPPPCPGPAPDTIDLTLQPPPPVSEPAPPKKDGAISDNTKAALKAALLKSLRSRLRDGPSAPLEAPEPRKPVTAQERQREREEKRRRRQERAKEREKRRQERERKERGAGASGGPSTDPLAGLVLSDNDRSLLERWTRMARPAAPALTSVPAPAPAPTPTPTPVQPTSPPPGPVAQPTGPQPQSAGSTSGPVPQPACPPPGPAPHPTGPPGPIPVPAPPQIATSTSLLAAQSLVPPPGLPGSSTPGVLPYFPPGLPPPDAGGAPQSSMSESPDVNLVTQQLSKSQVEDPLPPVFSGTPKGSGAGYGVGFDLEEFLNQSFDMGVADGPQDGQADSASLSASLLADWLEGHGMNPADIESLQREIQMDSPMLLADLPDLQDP
Procedure: as §1, §2, §3, §4, §5

ERK1 = ERK1 (Homo sapiens, UniProt P27361); test: KINOMEscan select kinase screen; type: binding; conditions: 10000 nM, two experiments
Sequence of ERK1 (P27361 whole entry): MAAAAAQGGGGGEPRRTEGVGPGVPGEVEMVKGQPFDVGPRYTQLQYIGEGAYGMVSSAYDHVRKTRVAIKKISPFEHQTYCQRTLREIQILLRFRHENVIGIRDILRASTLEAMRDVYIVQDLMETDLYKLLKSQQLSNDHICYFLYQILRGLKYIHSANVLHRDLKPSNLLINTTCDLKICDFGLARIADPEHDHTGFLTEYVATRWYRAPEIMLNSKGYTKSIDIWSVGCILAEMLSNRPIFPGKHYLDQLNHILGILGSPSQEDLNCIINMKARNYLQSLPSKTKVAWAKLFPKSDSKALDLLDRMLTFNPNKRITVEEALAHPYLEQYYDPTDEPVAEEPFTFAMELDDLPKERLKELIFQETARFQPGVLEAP
Procedure: as §1, §2, §3, §4, §5

CDK5 = CDK5 (Homo sapiens, UniProt Q00535); test: KINOMEscan select kinase screen; type: binding; conditions: two experiments
Sequence of CDK5 (Q00535 whole entry): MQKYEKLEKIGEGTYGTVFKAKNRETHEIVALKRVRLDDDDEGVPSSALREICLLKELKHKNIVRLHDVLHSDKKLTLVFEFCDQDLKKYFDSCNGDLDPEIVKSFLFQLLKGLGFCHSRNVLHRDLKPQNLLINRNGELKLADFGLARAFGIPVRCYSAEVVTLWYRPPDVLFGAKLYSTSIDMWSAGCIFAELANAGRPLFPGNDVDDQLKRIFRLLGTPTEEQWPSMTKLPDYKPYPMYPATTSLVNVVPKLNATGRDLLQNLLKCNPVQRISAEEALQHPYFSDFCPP
Procedure: as §1, §2, §3, §4, §5

GSK3A = GSK3A (Homo sapiens, UniProt P49840); test: KINOMEscan select kinase screen; type: binding; conditions: two experiments
Sequence of GSK3A (P49840 whole entry): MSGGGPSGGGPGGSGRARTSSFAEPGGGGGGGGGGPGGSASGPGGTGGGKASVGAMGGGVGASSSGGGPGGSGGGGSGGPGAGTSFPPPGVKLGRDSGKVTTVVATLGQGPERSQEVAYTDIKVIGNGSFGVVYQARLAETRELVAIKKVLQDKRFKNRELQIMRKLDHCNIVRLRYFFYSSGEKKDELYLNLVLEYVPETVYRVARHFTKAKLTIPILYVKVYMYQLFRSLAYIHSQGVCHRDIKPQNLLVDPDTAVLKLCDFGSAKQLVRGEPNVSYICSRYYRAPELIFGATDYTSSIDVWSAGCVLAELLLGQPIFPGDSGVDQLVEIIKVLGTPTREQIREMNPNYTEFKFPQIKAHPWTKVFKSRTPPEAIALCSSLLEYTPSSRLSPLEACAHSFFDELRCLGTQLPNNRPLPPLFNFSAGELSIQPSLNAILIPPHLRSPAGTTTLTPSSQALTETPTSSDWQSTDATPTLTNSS
Procedure: as §1, §2, §3, §4, §5

GSK3B = GSK3B (Homo sapiens, UniProt P49841); test: KINOMEscan select kinase screen; type: binding; conditions: two experiments
Sequence of GSK3B (P49841 whole entry): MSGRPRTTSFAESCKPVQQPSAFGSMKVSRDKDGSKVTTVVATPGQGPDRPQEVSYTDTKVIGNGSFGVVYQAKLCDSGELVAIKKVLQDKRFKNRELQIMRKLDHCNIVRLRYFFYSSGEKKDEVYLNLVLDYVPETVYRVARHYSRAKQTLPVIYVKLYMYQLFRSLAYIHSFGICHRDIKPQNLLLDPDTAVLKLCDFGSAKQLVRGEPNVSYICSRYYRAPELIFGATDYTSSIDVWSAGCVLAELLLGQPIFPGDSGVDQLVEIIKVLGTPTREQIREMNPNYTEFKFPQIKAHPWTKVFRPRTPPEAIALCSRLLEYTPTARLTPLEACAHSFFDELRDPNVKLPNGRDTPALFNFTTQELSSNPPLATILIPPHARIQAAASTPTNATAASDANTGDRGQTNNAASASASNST
Procedure: as §1, §2, §3, §4, §5

CDK4 = CDK4 (Homo sapiens, UniProt P11802); test: KINOMEscan select kinase screen; type: binding; conditions: two experiments
Sequence of CDK4 (P11802 whole entry): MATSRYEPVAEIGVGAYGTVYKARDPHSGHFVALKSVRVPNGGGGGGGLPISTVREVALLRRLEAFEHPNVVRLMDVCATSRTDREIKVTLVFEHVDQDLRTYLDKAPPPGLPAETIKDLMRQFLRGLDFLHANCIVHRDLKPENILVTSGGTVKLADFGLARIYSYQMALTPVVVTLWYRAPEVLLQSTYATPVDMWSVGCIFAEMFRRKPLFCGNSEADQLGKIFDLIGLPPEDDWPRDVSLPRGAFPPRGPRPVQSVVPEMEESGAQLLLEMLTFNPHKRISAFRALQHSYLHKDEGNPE
Procedure: as §1, §2, §3, §4, §5

C#CCC(O)(c1ccncc1)c1cc2ccccc2n1S(=O)(=O)c1ccccc1 (stereo not shown) [FKK6]
PXR reporter activity, RLU/B-Gal [1]: unable to activate mutant PXR and 17076.9 RLU/B-Gal and 15814.1 RLU/B-Gal and 17887 RLU/B-Gal and 19102.1 RLU/B-Gal

O=C(c1ccncc1)c1cc2ccccc2n1S(=O)(=O)c1ccccc1 [FKK5, (1-(phenylsulfonyl)-1H-indol-2-yl)(pyridin-4-yl)methanone]
%Ctrl (CDK2; 10000 nM, 10 µM): 100 %Ctrl and 74 %Ctrl | %Ctrl (CDK2; 25000 nM, 25 µM): 89 %Ctrl and 63 %Ctrl | %Ctrl (IKK-alpha; 10000 nM, 10 µM): 86 %Ctrl | remaining binding at 10 µM (IKK-alpha; 10000 nM, read-out: %Ctrl): 96% | %Ctrl (IKK-alpha; 25000 nM, 25 µM): 100 %Ctrl | remaining binding at 25 µM (IKK-alpha; 25000 nM, read-out: %Ctrl): 83% | %Ctrl (ERK2; 10000 nM, 10 µM): 100 %Ctrl | remaining binding at 10 µM (ERK2; 10000 nM, read-out: %Ctrl): 99% | %Ctrl (ERK2; 25000 nM, 25 µM): 85 %Ctrl | remaining binding at 25 µM (ERK2; 25000 nM, read-out: %Ctrl): 94% | %Ctrl (ERK4; 10000 nM, 10 µM): 82 %Ctrl | remaining binding at 10 µM (ERK4; 10000 nM, read-out: %Ctrl): 97% | %Ctrl (ERK4; 25000 nM, 25 µM): 91 %Ctrl | remaining binding at 25 µM (ERK4; 25000 nM, read-out: %Ctrl): 89% | %Ctrl (ERK8; 10000 nM, 10 µM): 97 %Ctrl and 71 %Ctrl | %Ctrl (ERK8; 25000 nM, 25 µM): 65 %Ctrl | remaining binding at 25 µM (ERK8; 25000 nM, read-out: %Ctrl): 75% | %Ctrl (ERK5; 10000 nM, 10 µM): 79 %Ctrl | remaining binding at 10 µM (ERK5; 10000 nM, read-out: %Ctrl): 94% | %Ctrl (ERK5; 25000 nM, 25 µM): 92 %Ctrl | remaining binding at 25 µM (ERK5; 25000 nM, read-out: %Ctrl): 100% | %Ctrl (ERK1; 10 µM): 100 %Ctrl | remaining binding at 10 µM (ERK1; read-out: %Ctrl): 86% | %Ctrl (CDK5; 10000 nM, 10 µM): 77 %Ctrl and 100 %Ctrl | %Ctrl (CDK5; 25000 nM, 25 µM): 61 %Ctrl and 100 %Ctrl | %Ctrl (GSK3A; 10000 nM, 10 µM): 92 %Ctrl | remaining binding at 10 µM (GSK3A; 10000 nM, read-out: %Ctrl): 79% | %Ctrl (GSK3A; 25000 nM, 25 µM): 49 %Ctrl and 77 %Ctrl | %Ctrl (GSK3B; 10000 nM, 10 µM): 92 %Ctrl | remaining binding at 10 µM (GSK3B; 10000 nM, read-out: %Ctrl): 100% | %Ctrl (GSK3B; 25000 nM, 25 µM): 90 %Ctrl | remaining binding at 25 µM (GSK3B; 25000 nM, read-out: %Ctrl): 98% | %Ctrl (CDK4; 10000 nM, 10 µM): 98 %Ctrl | remaining binding at 10 µM (CDK4; 10000 nM, read-out: %Ctrl): 100% | %Ctrl (CDK4; 25000 nM, 25 µM): 90 %Ctrl | remaining binding at 25 µM (CDK4; 25000 nM, read-out: %Ctrl): 95%

From publication PMC7136958, “Targeting the pregnane X receptor using microbial metabolite mimicry” (EMBO Molecular Medicine, 2020)
